Data on 2 compounds can be found in patent publication US8507464B2, “Phosphoramidate alkylator prodrugs” (Threshold Pharmaceuticals, Inc., priority 2005, dated 2013).

pIC50: −log10 of the molar value. Read-outs that look alike come from different tables or passages of the source.

One series has as its system ACHN cells. As to the kind of experiment: Antiproliferation assay (Alamar Blue), anoxia vs air. Particulars: Homo sapiens, 2 h. Background: The colour change of resazurin is a common sign of viable cells or microbes.
Another series deals with UV41. As to the kind of experiment: Clonogenic survival - DNA mutant repair cells. The conditions noted are these: Cricetulus griseus.
The nature of series [1]: logP (partitioning between octanol and water). The conditions noted are these: read-out: logP. The format is physicochemical. The text has this:
As used herein “LogP” means a measure of lipophilicity of a substance determined based on the partitioning of the substance betwen octanol and water.

A short description of series [2]: Preliminary toxicity in mice (Example 56). The format is in vivo. The source says:
It is recognized that efficacious molecules for treatment of human diseases including cancer may be toxic at doses near or sometime much greater than doses necessary to achieve beneficial effects. To determine appropriate dose and route of administering such a compound, it is necessary to understand its toxicity. Routinely, initial approaches to determining the toxic dose involve the use of rodents such as mice to provide preliminary data that might support the design of similar studies in larger animals and humans. Test compounds (Compounds 24, 25 and 36) were tested in mice as preliminary experiments for determining doses to be used in larger animals. […] These doses selected represent an approximation of doses that might be used in larger animals such as rats and dogs for the purpose of confirming that such toxicities exist and for predicting if renal function should be measured in humans.

A further series deals with NCI H460 xenograft. As to the kind of experiment: H460 xenograft mouse model, 150 mg/kg weekly with CDDP (Example 53). In kind it is in vivo. How it is done: Female CB17/SCID mice (purchased from Charles River, Cambridge, Mass.), 7-8 weeks of age, were allowed to acclimatize for at least three days, and handled under pathogen-free conditions. Human non-small cell lung cell line NCI H460 was obtained from the American Type Culture Collection. The cell lines were cultured and harvested as described in Example 47 and inoculated at 3×10^6 cells/animal in the peritoneal subcutaneous space. When the tumors grew to an average volume of 100 mm^3, treatment was initiated in which groups of 10 mice received vehicle (Group 1), CDDP at 6 mg/kg (IV one time, Group 2), Compound 25 at 150 mg/kg in saline, once a week for two weeks (i.p., Group 3), or the combination of the two agents (Group 4).

For another series, the target named is CYP2C9 (Homo sapiens, UniProt P11712). As to the kind of experiment: Cytochrome P450 inhibition. The conditions noted are these: pH 7.4. As to the method:
(§1) A control reaction with no inhibitor was also prepared. After a suitable incubation at 37° C., the reactions were terminated by the addition of […] of 10% formic acid in water ([…] of acetonitrile for 2C19). […] Each assay was performed in duplicate.

Series [3] concerns mouse (MLM) liver microsomal proteins. In kind it is in vitro ADME. Particulars: Table 1, first study, 5 μM.
Another series deals with CYP2D6 (Homo sapiens, UniProt P10635). As to the kind of experiment: in vitro. Particulars: pH 7.4, probe dextromethorphan. As to the method: as §1
A further series deals with CYP1A2 (Homo sapiens, UniProt P05177). As to the kind of experiment: in vitro. Particulars: pH 7.4, probe phenacetin. As to the method:
as §1

The next series addresses CYP3A4 (Homo sapiens, UniProt P08684). As to the kind of experiment: in vitro. How it is done: as §1
Series [4] has as its system HT-29 human colon carcinoma xenograft. As to the kind of experiment: HT-29 human colon carcinoma xenograft mouse model (Example 47). The format is in vivo. The conditions noted are these: for % Inhibition vs Group 1: vs vehicle. How it is done:
Female CB17/SCID mice (purchased from Charles River, Cambridge, Mass.), 7-8 weeks of age, were allowed to acclimatize for at least three days, and handled under pathogen-free conditions. Human colon carcinoma cell line HT-29 was obtained from the American Type Culture Collection. The cell lines were cultured in RPMI 1640 media supplemented with 10% fetal bovine serum. Cells were maintained in a 37° C. incubator with 5% CO2. The HT-29 cells were harvested from culture and inoculated at 3×10^6 cells/animal in the peritoneal subcutaneous space. When the tumors grew to an average volume of 100 mm^3 (day 8), each group of 10 mice was administered, for three weeks, vehicle alone (saline and PEG (10 mL/kg each), Group 1), Compound 36 alone (dissolved in 30% cyclodextrin in PBS) at a daily dose of 20, 60, or 200 mg/kg (Groups 2, 3 and 4, respectively), and Compound 36 at a daily dose of 20, 60, and 200 mg/kg given 2-3 hours after a dose of 10 mg/kg of 5FU (in saline) (Group 5, 6 and 7, respectively) and compared to a group receiving only 5FU at 10 mg/kg (Group 8) as tabulated below.
The body weight of each mouse was recorded twice per week. Growth of each xenograft was monitored by externally measuring tumors in two dimensions using a digital caliper twice per week. Tumor volume (V) was determined by the following equation: V=(L×W^2)/2, where L is the length and W is the width of a xenograft. Tumor volumes were measured twice weekly.
Background: A xenograft is tissue or cells of one species grown in another, often human tumour cells in immunodeficient mice.

CYP3A4, sequence (P08684 whole entry): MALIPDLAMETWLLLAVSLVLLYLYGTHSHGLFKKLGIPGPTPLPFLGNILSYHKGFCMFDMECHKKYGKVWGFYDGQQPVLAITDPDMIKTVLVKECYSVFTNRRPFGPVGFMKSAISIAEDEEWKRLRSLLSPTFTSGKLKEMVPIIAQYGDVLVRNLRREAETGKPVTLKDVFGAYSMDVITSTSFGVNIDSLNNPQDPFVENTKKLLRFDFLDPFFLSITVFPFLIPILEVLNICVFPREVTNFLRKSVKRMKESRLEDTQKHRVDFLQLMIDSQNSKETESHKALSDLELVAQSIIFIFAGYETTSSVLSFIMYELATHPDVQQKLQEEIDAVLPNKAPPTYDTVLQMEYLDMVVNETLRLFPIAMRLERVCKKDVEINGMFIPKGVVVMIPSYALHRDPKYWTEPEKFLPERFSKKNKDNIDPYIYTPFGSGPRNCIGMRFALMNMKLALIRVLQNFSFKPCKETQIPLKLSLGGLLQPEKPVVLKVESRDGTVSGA
CYP2D6, sequence (P10635 whole entry): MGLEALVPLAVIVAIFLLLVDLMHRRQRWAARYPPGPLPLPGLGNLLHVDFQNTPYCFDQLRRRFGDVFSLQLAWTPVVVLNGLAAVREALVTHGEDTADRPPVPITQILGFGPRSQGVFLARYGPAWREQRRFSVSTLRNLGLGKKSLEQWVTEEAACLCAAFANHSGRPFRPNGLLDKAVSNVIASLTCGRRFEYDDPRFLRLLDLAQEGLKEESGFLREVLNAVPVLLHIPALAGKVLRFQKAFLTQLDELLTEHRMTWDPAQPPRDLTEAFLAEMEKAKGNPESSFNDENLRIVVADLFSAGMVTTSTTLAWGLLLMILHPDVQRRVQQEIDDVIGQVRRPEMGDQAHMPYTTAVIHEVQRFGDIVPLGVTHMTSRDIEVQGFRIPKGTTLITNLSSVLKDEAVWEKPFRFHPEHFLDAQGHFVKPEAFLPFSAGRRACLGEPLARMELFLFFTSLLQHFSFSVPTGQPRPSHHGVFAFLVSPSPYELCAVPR
CYP1A2, sequence (P05177 whole entry, species assumed): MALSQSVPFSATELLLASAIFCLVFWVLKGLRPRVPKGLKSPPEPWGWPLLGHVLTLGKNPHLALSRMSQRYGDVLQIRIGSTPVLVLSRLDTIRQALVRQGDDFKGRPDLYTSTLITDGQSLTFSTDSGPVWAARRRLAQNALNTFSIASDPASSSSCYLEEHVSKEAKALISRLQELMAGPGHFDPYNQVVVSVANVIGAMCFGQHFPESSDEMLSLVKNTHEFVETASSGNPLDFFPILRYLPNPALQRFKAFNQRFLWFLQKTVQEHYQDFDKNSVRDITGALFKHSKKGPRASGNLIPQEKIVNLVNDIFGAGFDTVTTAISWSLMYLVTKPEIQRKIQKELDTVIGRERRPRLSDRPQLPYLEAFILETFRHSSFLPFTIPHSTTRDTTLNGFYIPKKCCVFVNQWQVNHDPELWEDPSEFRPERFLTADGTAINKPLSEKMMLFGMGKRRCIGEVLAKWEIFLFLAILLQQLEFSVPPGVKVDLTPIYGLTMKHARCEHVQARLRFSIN
CYP2C9, sequence (P11712 whole entry): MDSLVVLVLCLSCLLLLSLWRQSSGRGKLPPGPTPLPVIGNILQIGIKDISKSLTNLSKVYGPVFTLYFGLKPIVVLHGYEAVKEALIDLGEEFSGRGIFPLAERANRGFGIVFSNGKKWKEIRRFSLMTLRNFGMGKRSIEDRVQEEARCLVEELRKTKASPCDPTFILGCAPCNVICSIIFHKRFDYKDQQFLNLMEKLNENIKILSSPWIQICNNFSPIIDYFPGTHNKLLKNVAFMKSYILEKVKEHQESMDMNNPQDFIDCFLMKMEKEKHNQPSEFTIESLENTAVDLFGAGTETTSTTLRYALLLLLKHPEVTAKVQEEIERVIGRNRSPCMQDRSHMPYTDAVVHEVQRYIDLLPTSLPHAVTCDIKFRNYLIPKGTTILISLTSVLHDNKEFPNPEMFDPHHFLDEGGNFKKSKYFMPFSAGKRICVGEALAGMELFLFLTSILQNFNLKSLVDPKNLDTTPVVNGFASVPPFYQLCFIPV

Usually pIC50 stands for −log10 of the IC50, conventionally taken in molar units. As a reminder, the IC90 is the point of the concentration-response curve where the effect stands at 90%. Broadly, the logP is a log measure of how a compound divides between an organic and an aqueous phase. As for `Cn1c(COP(=O)(NCCBr)NCCBr)cnc1[N+](=O)[O-]` [Compound 25], the pIC50 in the series with ACHN cells (read-out: IC50 ACHN Air) is 4.21; with ACHN cells (read-out: IC50 ACHN Anoxia) it was 6.70; on CYP2C9, ~5.00; on CYP2D6, < 4.30; against CYP1A2 it was < 4.30; against CYP3A4 (pH 7.4, IC50 3A4 Midazolam, probe substrate midazolam) it was < 4.30. Besides, the pIC50 against CYP3A4 (pH 7.4, IC50 3A4 Nifedipine, probe substrate nifedipine) was < 4.30; at CYP3A4 (pH 7.4, IC50 3A4 Testosterone, probe substrate testosterone), < 4.30. In addition, the figures for the IC90 in the series with UV41 (read-out: IC90 UV41 Air) and in the series on UV41 (read-out: IC90 UV41 N2) were 17 µM and 0.02 µM, respectively. In series [1], the logP was < 0. The white blood cells entry in [2] is on record as “Transient reductions in white blood cells”. Moreover, the “toxicity at 300 mg/kg single dose” value in [2] (300 mg/kg single dose) was “renal toxicities such as tubular necrosis and protein spillage into the urine”. Besides, the “toxicity at lower doses (100 and 200 mg/kg)” value in series [2] (100 and 200 mg/kg) was “little toxicity”. Also, in the series on NCI H460 xenograft (150 mg/kg once a week), the body weight entry was “Little change in body weight”. In the series with NCI H460 xenograft (150 mg/kg once a week for two weeks, i.p.), the “tumor growth during the two week period of dosing” value is “complete inhibition of tumor growth”. In series [3], the “Metabolic stability (% at 30 min) MLM” value came to 89%.

On to `Cn1c(COP(=O)(NCCCl)NCCCl)cnc1[N+](=O)[O-]` [Compound 36], for which the “% Inhibition vs Group 1” value in series [4] (Group 2: Compound 36 20 mg/kg daily, 3 weeks) amounted to 34.6%; in series [4] (Group 3: Compound 36 60 mg/kg daily) it was 16.1%; in series [4] (Group 4: Compound 36 200 mg/kg daily), 20.2%. The “body weight and mortality” value in series [4] (particularly high dose group) was “some degree of weight loss and occasional mortality”.
